“And” between values parts separate entries of the source, which are not always exact repeats. Identical values can stand only once. Like-named read-outs stand apart in the source and are kept apart here.
Experiments:
Format in all cases: biochemical
[1] = molecular target: T1, SHP-1 (Homo sapiens, UniProt P29350); test: PTP inhibition assay (pNPP hydrolysis), catalytic domain of SHP-1, SHP-1(ΔSH2)
T1 construct: The catalytic domain of SHP-1, SHP-1(ΔSH2), was purified from a recombinant Escherichia coli strain; made in house; host or cells: Escherichia coli
Description: (§1) PTP Inhibition Assays. Stock solutions of inhibitors were prepared in dimethyl sulfoxide (DMSO) and their concentrations were calculated from the known inhibitor masses and solvent volumes. A typical reaction (total volume 1 mL) contained 50 mM HEPES (pH 7.4), 1 mM EDTA, 1 mM tris(carboxyethyl)phosphine (TCEP), 50 mM NaCl, 5% (v/v) DMSO, 0.1-0.2 μM PTP, and 0-2000 μM inhibitor. After incubation of the enzyme with the inhibitor for 1 h at room temperature, the reaction was initiated by the addition of 1.0 mM p-nitrophenyl phosphate (pNPP). The reaction progress was monitored at 405 nm on a Perkin-Elmer UV-Vis spectrophotometer. The IC50 values were determined by plotting the remaining activity as a function of inhibitor concentration, and the K1* values were obtained by fitting the data to the Michaelis-Menten equation. To determine the K1 value, the reaction was initiated by addition of enzyme (0.2 μM) into the above reaction mixture, which also contained 1.0 mM pNPP. The reaction was monitored continuously on the UV-Vis spectrophotometer and the initial reaction rates (<15 s) were fitted to the Michaelis-Menten equation.

[2] = molecular target: T2, VHR (Homo sapiens, UniProt P51452); test: PTP inhibition assay (pNPP hydrolysis), dual-specificity phosphatase VHR
T2 construct: made in house; host or cells: Escherichia coli
Description: as §1

[3] = molecular target: T3, PTP1B (Homo sapiens, UniProt P18031); test: PTP inhibition assay (pNPP hydrolysis), PTP1B
T3 construct: made in house; host or cells: Escherichia coli
T3 sequence (P18031 1-435): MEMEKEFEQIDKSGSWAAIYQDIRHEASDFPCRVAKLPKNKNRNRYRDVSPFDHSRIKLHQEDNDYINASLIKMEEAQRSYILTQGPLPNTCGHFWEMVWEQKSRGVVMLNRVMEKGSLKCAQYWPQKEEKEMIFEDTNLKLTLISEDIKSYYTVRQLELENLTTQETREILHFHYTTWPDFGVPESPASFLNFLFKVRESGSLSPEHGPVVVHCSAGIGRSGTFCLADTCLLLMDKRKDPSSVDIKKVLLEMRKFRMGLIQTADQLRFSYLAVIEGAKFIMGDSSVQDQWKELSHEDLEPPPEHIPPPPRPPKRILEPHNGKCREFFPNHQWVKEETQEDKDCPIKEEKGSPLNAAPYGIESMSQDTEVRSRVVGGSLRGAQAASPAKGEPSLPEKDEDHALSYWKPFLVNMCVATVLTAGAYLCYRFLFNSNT
Description: as §1
To determine the rate constant κ6, the enzyme (1.0 μM) was incubated with 50-100 μM inhibitor in 100 μL of the above reaction buffer for 3 h at room temperature. The mixture was rapidly diluted into 900 μL of the same reaction buffer containing 1.0 mM pNPP (without inhibitor). Reactivation of PTP activity was monitored at 405 nm and the progress curves were fit to the equation
where νs is the final steady-state velocity. The rate constant κ5 was calculated using the equation
Inactivation of Inhibitor Cinn-GEE by Cysteamine. Cinn-GEE (1 mM) was incubated with 100 mM cysteamine hydrochloride (which had been neutralized by the addition of 1.0 equivalent of NaOH) in 100 μL of a 97:3 DMSO/H2O mixture for 24 h. The treated inhibitor was then used in inhibition assays as described above. As a control, inhibition assay also performed with the same amount of cysteamine hydrochloride/NaOH solution.

[4] = 1 h preincubation with inhibitor, 1.0 mM pNPP, pH 7.4
[5] = slow-binding inhibition, 1 h preincubation, 1.0 mM pNPP, read-out: KI* (overall equilibrium inhibition constant)

T1 sequence (P29350 214-595): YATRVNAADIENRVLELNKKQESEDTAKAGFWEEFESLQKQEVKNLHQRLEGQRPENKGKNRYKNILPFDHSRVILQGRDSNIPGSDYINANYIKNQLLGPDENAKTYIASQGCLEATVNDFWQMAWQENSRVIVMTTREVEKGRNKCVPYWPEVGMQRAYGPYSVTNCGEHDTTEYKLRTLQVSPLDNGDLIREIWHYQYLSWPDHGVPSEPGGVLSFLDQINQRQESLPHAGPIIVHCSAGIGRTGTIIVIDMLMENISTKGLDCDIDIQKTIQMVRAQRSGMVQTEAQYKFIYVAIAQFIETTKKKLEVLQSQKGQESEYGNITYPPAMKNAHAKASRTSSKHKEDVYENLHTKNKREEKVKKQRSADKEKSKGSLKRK
T2 sequence (P51452 whole entry, species assumed): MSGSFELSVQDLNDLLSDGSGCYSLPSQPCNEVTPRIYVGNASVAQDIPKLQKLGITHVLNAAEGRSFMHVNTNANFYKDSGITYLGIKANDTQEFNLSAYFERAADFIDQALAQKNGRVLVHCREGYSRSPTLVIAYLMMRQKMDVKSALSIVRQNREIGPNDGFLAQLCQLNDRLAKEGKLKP

O=CC=Cc1ccc(C(=O)O)cc1 [Compound 3, 4-(3-Oxo-1-propenyl)benzoic acid]
IC50 [1, 4]: 230 µM
IC50 [2, 4]: > 2000 µM
Inhibition against VHR ([2]; up to 2 mM): no significant inhibition
IC50 [3, 4]: 970 µM

O=Cc1ccccc1 [Compound 1, Benzaldehyde, reference compound]
Inhibitory activity (in words) [1]: least active
Inhibitory activity (in words) [2]: least active
Inhibitory activity (in words) [3]: least active

NC(=O)C(CCC(=O)O)NC(=O)C(CCC(=O)O)NC(=O)CNC(=O)c1ccc(C=CC=O)cc1 (stereo not drawn) [Compound 5, N-[4-(3-Oxo-1-propenyl)benzoyl]-Gly-Glu-Glu-NH2]
Ki [1, 5]: 10.7 µM
Ki [2, 5]: 288 µM
κ6, rate for reactivation of PTP1B ([3]; E·I* complex preformed 3 h, diluted 10-fold into 1.0 mM pNPP): 0.56 min⁻¹
κ5, rate for conversion of noncovalent E·I complex to covalent complex ([3]; calculated from K1*=K1κ6/(κ5+κ6)): 56 min⁻¹
Ki ([3]; initial reaction rates (<15 s), reaction initiated by enzyme, read-out: K1, equilibrium inhibition constant for the initial complex E·I): 550 µM
Inhibitory activity against PTP1B after treatment of inhibitor with cysteamine ([3]; prior treatment with excess cysteamine): abolished
Ki [3, 5]: 5.4 µM and 5.42 µM

Source: US20040009956A1, “Inhibition of protein tyrosine phosphatases and SH2 domains by a neutral phosphotyrosine mimetic” (priority 2002, published 2004)
